Measured values taken from ChEMBL document CHEMBL4507284, “Data for DCP probe BI-1230” (2021).

What was measured:
[1] = system: Tyrosine-protein kinase ABL1 (Homo sapiens), P00519 [E255K]; details: Compound concentration 1000.0 nM
[2] = target: Tyrosine-protein kinase ABL2 (Homo sapiens) (UniProt P42684); details: Compound concentration 1000.0 nM
[3] = target: RAC-gamma serine/threonine-protein kinase (Homo sapiens) (UniProt Q9Y243); details: Compound concentration 1000.0 nM
[4] = target: Mitogen-activated protein kinase kinase kinase 5 (Homo sapiens) (UniProt Q99683); details: Compound concentration 1000.0 nM
[5] = target: Tyrosine-protein kinase Blk (Homo sapiens) (UniProt P51451); details: Compound concentration 1000.0 nM
[6] = target: Cyclin-dependent kinase 11A (Homo sapiens) (UniProt Q9UQ88); details: Compound concentration 1000.0 nM
[7] = target: Cyclin-dependent kinase-like 5 (Homo sapiens) (UniProt O76039); details: Compound concentration 1000.0 nM
[8] = target: Serine/threonine-protein kinase Chk2 (Homo sapiens) (UniProt O96017); details: Compound concentration 1000.0 nM
[9] = target: Casein kinase I isoform delta (Homo sapiens) (UniProt P48730); details: Compound concentration 1000.0 nM
[10] = target: Serine/threonine-protein kinase 17B (Homo sapiens) (UniProt O94768); details: Compound concentration 1000.0 nM
[11] = system: Epidermal growth factor receptor (Homo sapiens), P00533 [L858R]; details: Compound concentration 1000.0 nM
[12] = system: Epidermal growth factor receptor (Homo sapiens), P00533 [L858R,T790M]; details: Compound concentration 1000.0 nM
[13] = target: Ephrin type-B receptor 3 (Homo sapiens) (UniProt P54753); details: Compound concentration 1000.0 nM
[14] = target: Tyrosine-protein kinase Fes/Fps (Homo sapiens) (UniProt P07332); details: Compound concentration 1000.0 nM
[15] = system: eIF-2-alpha kinase GCN2 (Homo sapiens), Q9P2K8 [S808G]; details: Compound concentration 1000.0 nM
[16] = target: Insulin-like growth factor 1 receptor (Homo sapiens) (UniProt P08069); details: Compound concentration 1000.0 nM
[17] = target: Mitogen-activated protein kinase 9 (Homo sapiens) (UniProt P45984); details: Compound concentration 1000.0 nM
[18] = system: Mast/stem cell growth factor receptor Kit (Homo sapiens), P10721 [V559D]; details: Compound concentration 1000.0 nM
[19] = target: Serine/threonine-protein kinase LATS2 (Homo sapiens) (UniProt Q9NRM7); details: Compound concentration 1000.0 nM
[20] = target: Serine/threonine-protein kinase STK11 (Homo sapiens) (UniProt Q15831); details: Compound concentration 1000.0 nM
Chain of Serine/threonine-protein kinase STK11 (Homo sapiens) (Q15831 whole entry): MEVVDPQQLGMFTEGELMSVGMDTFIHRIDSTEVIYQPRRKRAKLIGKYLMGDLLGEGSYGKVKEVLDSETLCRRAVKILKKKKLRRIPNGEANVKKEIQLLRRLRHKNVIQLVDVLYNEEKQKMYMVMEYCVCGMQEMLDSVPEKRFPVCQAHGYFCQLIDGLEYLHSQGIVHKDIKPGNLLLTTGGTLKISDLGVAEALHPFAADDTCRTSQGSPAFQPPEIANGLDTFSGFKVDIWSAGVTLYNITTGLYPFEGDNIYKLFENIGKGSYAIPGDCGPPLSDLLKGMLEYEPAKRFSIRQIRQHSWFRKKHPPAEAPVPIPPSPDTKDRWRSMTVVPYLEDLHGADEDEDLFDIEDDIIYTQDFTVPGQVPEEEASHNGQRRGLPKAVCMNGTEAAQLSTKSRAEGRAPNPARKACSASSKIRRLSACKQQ

[21] = target: Tyrosine-protein kinase Lyn (Homo sapiens) (UniProt P07948); details: Compound concentration 1000.0 nM
[22] = target: Mitogen-activated protein kinase kinase kinase 13 (Homo sapiens) (UniProt O43283); details: Compound concentration 1000.0 nM
[23] = target: Maternal embryonic leucine zipper kinase (Homo sapiens) (UniProt Q14680); details: Compound concentration 1000.0 nM
[24] = target: Serine/threonine-protein kinase MRCK beta (Homo sapiens) (UniProt Q9Y5S2); details: Compound concentration 1000.0 nM
Chain of Serine/threonine-protein kinase MRCK beta (Homo sapiens) (Q9Y5S2 whole entry): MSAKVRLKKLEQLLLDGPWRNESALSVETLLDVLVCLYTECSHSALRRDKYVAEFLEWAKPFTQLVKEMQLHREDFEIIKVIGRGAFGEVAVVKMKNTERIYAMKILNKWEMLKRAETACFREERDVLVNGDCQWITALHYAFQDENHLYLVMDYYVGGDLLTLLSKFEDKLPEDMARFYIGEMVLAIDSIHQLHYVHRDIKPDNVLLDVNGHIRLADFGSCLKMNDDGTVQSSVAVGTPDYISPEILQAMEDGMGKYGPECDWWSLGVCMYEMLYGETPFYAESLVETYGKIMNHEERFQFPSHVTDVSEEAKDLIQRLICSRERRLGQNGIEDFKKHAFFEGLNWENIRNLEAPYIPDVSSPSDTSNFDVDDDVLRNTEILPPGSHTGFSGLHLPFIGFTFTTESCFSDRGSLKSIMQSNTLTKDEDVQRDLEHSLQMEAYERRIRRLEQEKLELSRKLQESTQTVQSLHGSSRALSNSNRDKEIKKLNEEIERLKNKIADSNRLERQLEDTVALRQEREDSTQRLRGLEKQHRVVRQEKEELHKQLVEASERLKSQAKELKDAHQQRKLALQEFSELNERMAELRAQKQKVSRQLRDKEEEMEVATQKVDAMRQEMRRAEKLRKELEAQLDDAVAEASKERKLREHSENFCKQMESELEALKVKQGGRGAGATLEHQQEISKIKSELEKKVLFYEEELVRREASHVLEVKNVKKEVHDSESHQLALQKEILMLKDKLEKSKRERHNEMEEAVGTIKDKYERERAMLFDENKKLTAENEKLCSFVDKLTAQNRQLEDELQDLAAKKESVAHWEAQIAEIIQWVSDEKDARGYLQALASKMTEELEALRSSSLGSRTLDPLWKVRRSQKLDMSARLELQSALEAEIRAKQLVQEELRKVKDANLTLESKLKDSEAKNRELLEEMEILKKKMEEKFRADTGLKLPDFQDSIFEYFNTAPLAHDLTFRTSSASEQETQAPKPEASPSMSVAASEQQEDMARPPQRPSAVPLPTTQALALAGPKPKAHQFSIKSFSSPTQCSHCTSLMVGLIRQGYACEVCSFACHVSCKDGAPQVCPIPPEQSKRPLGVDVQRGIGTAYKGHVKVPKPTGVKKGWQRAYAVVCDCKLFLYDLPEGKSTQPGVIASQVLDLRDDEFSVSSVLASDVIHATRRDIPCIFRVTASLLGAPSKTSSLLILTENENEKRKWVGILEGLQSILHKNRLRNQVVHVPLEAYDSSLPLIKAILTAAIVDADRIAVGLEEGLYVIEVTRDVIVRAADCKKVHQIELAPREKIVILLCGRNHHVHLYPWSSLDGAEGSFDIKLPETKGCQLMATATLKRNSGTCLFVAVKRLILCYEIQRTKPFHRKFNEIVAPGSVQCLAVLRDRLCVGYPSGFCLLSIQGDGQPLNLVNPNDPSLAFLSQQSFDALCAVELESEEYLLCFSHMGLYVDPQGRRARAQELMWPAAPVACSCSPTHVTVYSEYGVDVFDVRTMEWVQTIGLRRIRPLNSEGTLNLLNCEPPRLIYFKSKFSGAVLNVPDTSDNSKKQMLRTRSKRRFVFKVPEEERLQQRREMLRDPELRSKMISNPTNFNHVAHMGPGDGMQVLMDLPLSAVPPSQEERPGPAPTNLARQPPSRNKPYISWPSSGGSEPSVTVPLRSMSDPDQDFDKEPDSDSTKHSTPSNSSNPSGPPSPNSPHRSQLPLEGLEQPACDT

[25] = target: Serine/threonine-protein kinase Nek5 (Homo sapiens) (UniProt Q6P3R8); details: Compound concentration 1000.0 nM
[26] = target: Serine/threonine-protein kinase Nek6 (Homo sapiens) (UniProt Q9HC98); details: Compound concentration 1000.0 nM
[27] = target: Serine/threonine-protein kinase PAK 6 (Homo sapiens) (UniProt Q9NQU5); details: Compound concentration 1000.0 nM
[28] = target: Platelet-derived growth factor receptor beta (Homo sapiens) (UniProt P09619); details: Compound concentration 1000.0 nM
[29] = target: Phosphatidylinositol 4,5-bisphosphate 3-kinase catalytic subunit gamma isoform (Homo sapiens) (UniProt P48736); details: Compound concentration 1000.0 nM
[30] = target: 1-phosphatidylinositol 3-phosphate 5-kinase (Homo sapiens) (UniProt Q9Y2I7); details: Compound concentration 1000.0 nM
[31] = target: Serine/threonine-protein kinase pim-2 (Homo sapiens) (UniProt Q9P1W9); details: Compound concentration 1000.0 nM
Chain of Serine/threonine-protein kinase pim-2 (Homo sapiens) (Q9P1W9 whole entry, looked up): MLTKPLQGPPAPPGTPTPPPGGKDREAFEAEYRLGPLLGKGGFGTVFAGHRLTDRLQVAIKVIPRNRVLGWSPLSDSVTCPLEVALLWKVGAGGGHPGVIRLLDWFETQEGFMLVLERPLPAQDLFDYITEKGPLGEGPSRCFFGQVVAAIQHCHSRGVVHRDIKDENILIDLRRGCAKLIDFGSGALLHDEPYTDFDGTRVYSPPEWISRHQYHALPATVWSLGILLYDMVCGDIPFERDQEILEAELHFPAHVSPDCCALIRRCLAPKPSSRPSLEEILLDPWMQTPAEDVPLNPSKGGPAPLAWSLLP

[32] = target: Serine/threonine-protein kinase N2 (Homo sapiens) (UniProt Q16513); details: Compound concentration 1000.0 nM
[33] = target: Serine/threonine-protein kinase PLK3 (Homo sapiens) (UniProt Q9H4B4); details: Compound concentration 1000.0 nM
[34] = target: Serine/threonine-protein kinase PLK4 (Homo sapiens) (UniProt O00444); details: Compound concentration 1000.0 nM
[35] = target: Serine/threonine-protein kinase SIK3 (Homo sapiens) (UniProt Q9Y2K2); details: Compound concentration 1000.0 nM
[36] = system: Proto-oncogene tyrosine-protein kinase receptor Ret (Homo sapiens), P07949 [V804M]; details: Compound concentration 1000.0 nM
[37] = target: Serine/threonine-protein kinase RIO1 (Homo sapiens) (UniProt Q9BRS2); details: Compound concentration 1000.0 nM
[38] = target: Serine/threonine-protein kinase RIO3 (Homo sapiens) (UniProt O14730); details: Compound concentration 1000.0 nM
[39] = target: Proto-oncogene tyrosine-protein kinase ROS (Homo sapiens) (UniProt P08922); details: Compound concentration 1000.0 nM
[40] = target: Serine/threonine-protein kinase Sgk2 (Homo sapiens) (UniProt Q9HBY8); details: Compound concentration 1000.0 nM
Chain of Serine/threonine-protein kinase Sgk2 (Homo sapiens) (Q9HBY8 whole entry): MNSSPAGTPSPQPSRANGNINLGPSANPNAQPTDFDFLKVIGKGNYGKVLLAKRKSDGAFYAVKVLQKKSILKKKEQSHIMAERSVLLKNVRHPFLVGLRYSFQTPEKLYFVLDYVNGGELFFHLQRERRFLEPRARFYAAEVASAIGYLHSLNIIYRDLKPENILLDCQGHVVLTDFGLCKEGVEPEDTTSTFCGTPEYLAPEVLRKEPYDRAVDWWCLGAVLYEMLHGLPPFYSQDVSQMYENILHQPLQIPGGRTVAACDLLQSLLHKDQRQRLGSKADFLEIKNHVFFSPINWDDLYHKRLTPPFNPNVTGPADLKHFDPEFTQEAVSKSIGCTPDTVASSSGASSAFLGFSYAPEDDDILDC

[41] = target: SRSF protein kinase 2 (Homo sapiens) (UniProt P78362); details: Compound concentration 1000.0 nM
Chain of SRSF protein kinase 2 (Homo sapiens) (P78362 whole entry, looked up): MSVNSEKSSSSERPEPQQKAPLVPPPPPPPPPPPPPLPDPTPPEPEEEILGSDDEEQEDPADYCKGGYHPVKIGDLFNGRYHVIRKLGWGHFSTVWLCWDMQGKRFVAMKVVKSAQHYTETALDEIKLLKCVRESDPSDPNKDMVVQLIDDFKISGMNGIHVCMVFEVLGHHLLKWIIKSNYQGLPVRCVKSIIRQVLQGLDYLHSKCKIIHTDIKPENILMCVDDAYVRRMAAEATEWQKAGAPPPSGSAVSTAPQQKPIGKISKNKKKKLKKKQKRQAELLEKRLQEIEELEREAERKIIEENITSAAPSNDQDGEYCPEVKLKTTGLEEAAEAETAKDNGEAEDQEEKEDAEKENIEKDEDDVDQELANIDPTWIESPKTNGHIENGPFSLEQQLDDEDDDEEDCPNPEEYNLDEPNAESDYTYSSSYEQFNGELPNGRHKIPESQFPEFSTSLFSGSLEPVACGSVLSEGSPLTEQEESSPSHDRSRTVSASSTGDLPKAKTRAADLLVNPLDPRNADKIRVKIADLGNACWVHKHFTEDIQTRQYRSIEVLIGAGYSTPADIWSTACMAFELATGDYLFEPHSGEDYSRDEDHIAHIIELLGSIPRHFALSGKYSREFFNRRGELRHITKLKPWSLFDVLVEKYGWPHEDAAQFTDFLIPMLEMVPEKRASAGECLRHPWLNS

[42] = target: Serine/threonine-protein kinase 16 (Homo sapiens) (UniProt O75716); details: Compound concentration 1000.0 nM
[43] = target: Serine/threonine-protein kinase WNK4 (Homo sapiens) (UniProt Q96J92); details: Compound concentration 1000.0 nM
[44] = target: Mitogen-activated protein kinase kinase kinase 20 (Homo sapiens) (UniProt Q9NYL2); details: Compound concentration 1000.0 nM
[45] = target: Beta-3 adrenergic receptor (Homo sapiens, UniProt P13945); details: Compound concentration 10.0 uM
Chain of Beta-3 adrenergic receptor (P13945 whole entry, looked up): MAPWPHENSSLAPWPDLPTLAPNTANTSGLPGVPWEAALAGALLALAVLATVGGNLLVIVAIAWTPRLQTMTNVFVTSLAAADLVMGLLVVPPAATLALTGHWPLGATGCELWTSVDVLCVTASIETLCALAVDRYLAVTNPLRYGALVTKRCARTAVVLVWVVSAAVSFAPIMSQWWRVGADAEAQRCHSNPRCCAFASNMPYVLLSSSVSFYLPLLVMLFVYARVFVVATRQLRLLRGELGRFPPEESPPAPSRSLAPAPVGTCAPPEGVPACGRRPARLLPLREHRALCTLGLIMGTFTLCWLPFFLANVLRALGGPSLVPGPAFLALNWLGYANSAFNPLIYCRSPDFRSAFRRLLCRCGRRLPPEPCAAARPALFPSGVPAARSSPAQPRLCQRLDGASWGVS

Chain of Tyrosine-protein kinase ABL1 (Homo sapiens), P00519 [E255K] (P00519 whole entry E255K): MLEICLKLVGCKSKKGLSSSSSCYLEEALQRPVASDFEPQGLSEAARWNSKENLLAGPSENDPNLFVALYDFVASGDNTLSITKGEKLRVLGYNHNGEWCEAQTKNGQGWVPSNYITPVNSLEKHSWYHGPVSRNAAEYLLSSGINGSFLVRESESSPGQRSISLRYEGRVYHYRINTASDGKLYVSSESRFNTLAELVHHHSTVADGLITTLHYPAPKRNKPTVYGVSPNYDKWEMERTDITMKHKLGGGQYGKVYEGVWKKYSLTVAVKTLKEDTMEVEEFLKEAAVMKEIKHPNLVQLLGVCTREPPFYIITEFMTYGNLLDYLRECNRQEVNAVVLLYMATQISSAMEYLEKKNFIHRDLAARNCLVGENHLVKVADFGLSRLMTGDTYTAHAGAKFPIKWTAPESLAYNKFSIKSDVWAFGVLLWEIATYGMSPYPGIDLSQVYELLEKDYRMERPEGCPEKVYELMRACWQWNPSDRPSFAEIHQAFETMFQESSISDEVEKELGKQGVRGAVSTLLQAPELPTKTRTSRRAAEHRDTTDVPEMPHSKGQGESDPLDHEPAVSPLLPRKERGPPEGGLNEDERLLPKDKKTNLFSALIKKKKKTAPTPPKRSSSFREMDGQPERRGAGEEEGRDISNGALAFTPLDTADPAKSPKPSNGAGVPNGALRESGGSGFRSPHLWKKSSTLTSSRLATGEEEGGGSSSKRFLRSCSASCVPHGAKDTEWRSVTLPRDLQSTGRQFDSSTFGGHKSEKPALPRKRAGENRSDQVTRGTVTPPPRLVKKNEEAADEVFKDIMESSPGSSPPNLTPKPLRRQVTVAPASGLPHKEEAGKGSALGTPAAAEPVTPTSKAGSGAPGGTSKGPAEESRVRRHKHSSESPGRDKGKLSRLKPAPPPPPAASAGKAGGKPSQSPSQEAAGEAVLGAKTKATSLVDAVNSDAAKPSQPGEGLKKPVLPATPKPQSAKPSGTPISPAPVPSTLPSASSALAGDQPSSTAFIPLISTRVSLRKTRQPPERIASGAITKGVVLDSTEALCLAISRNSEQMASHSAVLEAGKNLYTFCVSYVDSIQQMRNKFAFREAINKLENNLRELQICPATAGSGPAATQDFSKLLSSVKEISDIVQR

## COc1ccc2c(O[C@@H]3C[C@H]4C(=O)N[C@]5(C(=O)O)CC5/C=C\CCCCC[C@H](NC(=O)OC5CCCC5)C(=O)N4C3)cc(-c3csc(NC(=O)C(C)C)n3)nc2c1C (stereo not given in full) [BI 1230]
[1]
  residual activity: 80%
[2]
  residual activity: 98%
[3]
  residual activity: 93%
[4]
  residual activity: 93%
[5]
  residual activity: 97%
[6]
  residual activity: 99%
[7]
  residual activity: 77%
[8]
  residual activity: 94%
[9]
  residual activity: 100%
[10]
  residual activity: 88%
[11]
  residual activity: 100%
[12]
  residual activity: 100%
[13]
  residual activity: 100%
[14]
  residual activity: 100%
[15]
  residual activity: 100%
[16]
  residual activity: 98%
[17]
  residual activity: 71%
[18]
  residual activity: 91%
[19]
  residual activity: 98%
[20]
  residual activity: 100%
[21]
  residual activity: 94%
[22]
  residual activity: 86%
[23]
  residual activity: 44%
[24]
  residual activity: 96%
[25]
  residual activity: 98%
[26]
  residual activity: 98%
[27]
  residual activity: 100%
[28]
  residual activity: 94%
[29]
  residual activity: 65%
[30]
  residual activity: 100%
[31]
  residual activity: 100%
[32]
  residual activity: 67%
[33]
  residual activity: 79%
[34]
  residual activity: 77%
[35]
  residual activity: 97%
[36]
  residual activity: 96%
[37]
  residual activity: 93%
[38]
  residual activity: 100%
[39]
  residual activity: 100%
[40]
  residual activity: 87%
[41]
  residual activity: 100%
[42]
  residual activity: 100%
[43]
  residual activity: 91%
[44]
  residual activity: 83%
[45]
  inhibition: 57.4%

## O=C(N[C@H]1CCCCC/C=C\C2C[C@@]2(C(=O)O)NC(=O)[C@@H]2C[C@@H](Oc3ccncc3)CN2C1=O)OC1CCCC1 (stereo not given in full) [BI 1675]
[1]
  residual activity: 80%
[2]
  residual activity: 100%
[3]
  residual activity: 94%
[4]
  residual activity: 91%
[5]
  residual activity: 63%
[6]
  residual activity: 88%
[7]
  residual activity: 83%
[8]
  residual activity: 100%
[9]
  residual activity: 81%
[10]
  residual activity: 69%
[11]
  residual activity: 96%
[12]
  residual activity: 98%
[13]
  residual activity: 100%
[14]
  residual activity: 100%
[15]
  residual activity: 100%
[16]
  residual activity: 96%
[17]
  residual activity: 94%
[18]
  residual activity: 89%
[19]
  residual activity: 100%
[20]
  residual activity: 85%
[21]
  residual activity: 87%
[22]
  residual activity: 100%
[23]
  residual activity: 84%
[24]
  residual activity: 100%
[25]
  residual activity: 91%
[26]
  residual activity: 87%
[27]
  residual activity: 100%
[28]
  residual activity: 87%
[29]
  residual activity: 78%
[30]
  residual activity: 100%
[31]
  residual activity: 100%
[32]
  residual activity: 75%
[33]
  residual activity: 100%
[34]
  residual activity: 88%
[35]
  residual activity: 95%
[36]
  residual activity: 100%
[37]
  residual activity: 63%
[38]
  residual activity: 100%
[39]
  residual activity: 92%
[40]
  residual activity: 100%
[41]
  residual activity: 64%
[42]
  residual activity: 79%
[43]
  residual activity: 100%
[44]
  residual activity: 90%
[45]
  inhibition: -9.47%
